Experimental data published in patent publication US20260234147A1 (priority 2023, published 2026).
Like-named read-outs stand apart in the source and are kept apart here.

Key:
α2C adrenergic receptor = target: T1, α2C adrenergic receptor (Homo sapiens, UniProt P18825); assay: Radioligand binding assay (Eurofins Cerep), [3H]RX 821002 displacement
T1 construct: Eurofins Cerep (contract screening)
T1 sequence (P18825 1-462): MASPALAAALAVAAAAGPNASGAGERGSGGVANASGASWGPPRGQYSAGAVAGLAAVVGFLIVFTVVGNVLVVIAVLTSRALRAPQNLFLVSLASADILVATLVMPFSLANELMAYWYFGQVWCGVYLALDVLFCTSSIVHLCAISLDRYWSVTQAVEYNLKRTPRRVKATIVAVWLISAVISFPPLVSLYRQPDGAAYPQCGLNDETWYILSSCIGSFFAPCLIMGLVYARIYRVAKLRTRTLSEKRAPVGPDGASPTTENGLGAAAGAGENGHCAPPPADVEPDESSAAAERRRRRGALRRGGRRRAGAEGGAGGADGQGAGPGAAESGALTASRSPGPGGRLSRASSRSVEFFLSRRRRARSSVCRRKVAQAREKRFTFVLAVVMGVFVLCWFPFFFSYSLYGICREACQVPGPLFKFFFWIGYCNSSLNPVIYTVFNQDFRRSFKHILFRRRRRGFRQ

α2A adrenergic receptor = target: T2, α2A adrenergic receptor (Homo sapiens, UniProt P08913); assay: as above
T2 construct: Eurofins Cerep (contract screening)
T2 sequence (P08913 1-465): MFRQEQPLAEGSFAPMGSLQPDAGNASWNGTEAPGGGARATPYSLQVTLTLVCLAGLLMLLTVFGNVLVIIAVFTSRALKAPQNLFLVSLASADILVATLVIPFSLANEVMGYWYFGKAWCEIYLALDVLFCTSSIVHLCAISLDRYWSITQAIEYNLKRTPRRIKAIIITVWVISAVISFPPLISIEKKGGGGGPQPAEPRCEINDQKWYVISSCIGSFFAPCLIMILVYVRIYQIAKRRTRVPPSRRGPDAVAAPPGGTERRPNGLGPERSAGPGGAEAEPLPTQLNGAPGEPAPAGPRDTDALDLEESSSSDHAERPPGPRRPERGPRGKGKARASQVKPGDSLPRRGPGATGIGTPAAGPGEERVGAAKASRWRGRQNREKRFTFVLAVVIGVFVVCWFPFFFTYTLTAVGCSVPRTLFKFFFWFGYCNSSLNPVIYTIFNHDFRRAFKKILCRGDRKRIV

hMOR = hMOR (Homo sapiens, UniProt P35372); assay: Radioligand binding assay (Eurofins Cerep), [3H]DAMGO displacement; settings: for Ki: 3 independent experiments
hKOR = hKOR (Homo sapiens, UniProt P41145); assay: Radioligand binding assay (Eurofins Cerep), [3H]U69,593 displacement
hDOR = hDOR (Homo sapiens, UniProt P41143); assay: Radioligand binding assay (Eurofins Cerep), [3H]DADLE displacement
[1] = Table B1, mean ± SEM, 3 independent experiments, read-out: Alpha2C Ki ± SEM
[2] = Alpha2A Ki ± SEM (nM), Table B1, mean ± SEM, 3 independent experiments
[3] = Table B1, mean ± SEM, read-out: MOR Ki ± SEM
[4] = Ki (nM ± SEM) a2C-AR, Table 3-1, 3 independent experiments
[5] = Ki (nM ± SEM) a2C-AR, Table 3-2, 3 independent experiments
[6] = Ki (nM ± SEM) a2C-AR, Table 3-5, 3 independent experiments
[7] = Ki (nM ± SEM) a2C-AR, Table 3-6, 3 independent experiments
[8] = Ki (nM ± SEM) a2A-AR, Table 3-1, 3 independent experiments
[9] = Ki (nM ± SEM) a2A-AR, Table 3-2, 3 independent experiments
[10] = Ki (nM ± SEM) a2A-AR, Table 3-3, 3 independent experiments
[11] = Ki (nM ± SEM) a2A-AR, Table 3-6, 3 independent experiments
[12] = Ki (nM ± SEM) a2A-ar, Table 3-5, 3 independent experiments
[13] = Table 3-1, 3 independent experiments, read-out: Ki (nM ± SEM) KOR
[14] = Table 3-2, 3 independent experiments, read-out: Ki (nM ± SEM) KOR
[15] = Table 3-3, 3 independent experiments, read-out: Ki (nM ± SEM) KOR
[16] = Table 3-5, 3 independent experiments, read-out: Ki (nM ± SEM) KOR
[17] = Table 3-6, 3 independent experiments, read-out: Ki (nM ± SEM) KOR
[18] = Table 3-1, 3 independent experiments, read-out: Ki (nM ± SEM) DOR
[19] = Table 3-2, 3 independent experiments, read-out: Ki (nM ± SEM) DOR
[20] = Table 3-3, 3 independent experiments, read-out: Ki (nM ± SEM) DOR
[21] = Table 3-5, 3 independent experiments, read-out: Ki (nM ± SEM) DOR
[22] = Table 3-6, 3 independent experiments, read-out: Ki (nM ± SEM) DOR
[23] = Table 3-1, read-out: Ki (nM ± SEM) MOR
[24] = Table 3-2, read-out: Ki (nM ± SEM) MOR
[25] = Table 3-3, read-out: Ki (nM ± SEM) MOR
[26] = Table 3-5, read-out: Ki (nM ± SEM) MOR
[27] = Table 3-6, read-out: Ki (nM ± SEM) MOR

Sequence of hMOR (P35372 whole entry): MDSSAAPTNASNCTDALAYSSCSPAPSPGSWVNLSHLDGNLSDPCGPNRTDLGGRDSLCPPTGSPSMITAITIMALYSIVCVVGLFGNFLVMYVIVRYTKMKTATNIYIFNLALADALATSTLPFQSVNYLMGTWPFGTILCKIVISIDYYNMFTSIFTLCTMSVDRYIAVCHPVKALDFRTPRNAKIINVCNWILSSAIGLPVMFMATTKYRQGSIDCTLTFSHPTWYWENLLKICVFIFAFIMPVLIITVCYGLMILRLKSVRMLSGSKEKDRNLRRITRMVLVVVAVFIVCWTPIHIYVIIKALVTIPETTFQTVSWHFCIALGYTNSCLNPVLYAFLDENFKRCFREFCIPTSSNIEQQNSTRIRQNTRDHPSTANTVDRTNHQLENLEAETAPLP
Sequence of hKOR (P41145 whole entry): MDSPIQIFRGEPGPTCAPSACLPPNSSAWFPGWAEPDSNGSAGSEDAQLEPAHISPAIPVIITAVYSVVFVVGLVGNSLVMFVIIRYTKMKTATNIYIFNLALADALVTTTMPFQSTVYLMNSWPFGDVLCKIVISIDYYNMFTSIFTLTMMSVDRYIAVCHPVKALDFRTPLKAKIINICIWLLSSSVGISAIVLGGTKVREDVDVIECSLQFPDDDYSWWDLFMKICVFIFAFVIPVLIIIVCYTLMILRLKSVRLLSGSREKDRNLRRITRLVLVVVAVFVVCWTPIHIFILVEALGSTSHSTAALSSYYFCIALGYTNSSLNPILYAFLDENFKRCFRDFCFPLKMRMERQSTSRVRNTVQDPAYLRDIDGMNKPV
Sequence of hDOR (P41143 whole entry): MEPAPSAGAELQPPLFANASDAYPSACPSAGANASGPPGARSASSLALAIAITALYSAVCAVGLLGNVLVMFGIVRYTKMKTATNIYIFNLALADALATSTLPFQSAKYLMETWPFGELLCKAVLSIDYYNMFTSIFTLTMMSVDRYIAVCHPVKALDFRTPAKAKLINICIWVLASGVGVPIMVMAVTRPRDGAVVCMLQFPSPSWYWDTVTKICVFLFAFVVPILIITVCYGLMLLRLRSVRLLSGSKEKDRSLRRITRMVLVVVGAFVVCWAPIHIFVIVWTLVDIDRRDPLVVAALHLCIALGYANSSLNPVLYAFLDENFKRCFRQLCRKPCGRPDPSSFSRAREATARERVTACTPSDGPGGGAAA

SMILES: COC(=O)C=C1CCN2CCC(O)(c3ccccc3OC)CC2C1 (single isomer, unassigned) [SG-01-005A]
- Ki (α2C adrenergic receptor; [1]): 489 ± 83.4 nM
- Ki (α2A adrenergic receptor; [2]): 1000 ± 254 nM
- Ki (hMOR; [3]): > 10000 nM

SMILES: COC(=O)C=C1CCN2CCC(O)(c3ccccc3OC)CC2C1 (single isomer, unassigned) [SG-01-005B]
- Ki (α2C adrenergic receptor; Alpha2C Ki ± SEM (nM), Table B1, mean ± SEM, 3 independent experiments): 46.7 ± 4.04 nM
- Ki (α2A adrenergic receptor; [2]): 110 ± 8 nM
- Ki (hMOR; [3]): > 10000 nM

SMILES: CC[C@@H]1CN2CC[C@@]3(O)C(=Nc4cccc(OC)c43)[C@@H]2C[C@@H]1/C(=C\OC)C(=O)OC [7-Hydroxy Mitragynine, reference compound]
- Ki (α2C adrenergic receptor; Table A1, data summary #1, read-out: Alpha2C Ki ± SEM): > 10000 nM
- Ki (α2A adrenergic receptor; Table A1, data summary #1, read-out: Alpha2A Ki ± SEM): > 10000 nM
- Ki (α2A adrenergic receptor; Table A4, data summary #2, read-out: Alpha2A Ki ± SEM): > 10000 nM
- Ki (hKOR; Table A1, data summary #1, read-out: KOR Ki ± SEM): 450 nM
- Ki (hKOR; Table A4, data summary #2, read-out: KOR Ki ± SEM): 450 nM
- Ki (hDOR; Table A1, data summary #1, read-out: DOR Ki ± SEM): 243 nM
- Ki (hDOR; Table A4, data summary #2, read-out: DOR Ki ± SEM): 243 nM

SMILES: COC(=O)CC1CCN(CCc2c[nH]c3cccc(OC)c23)CC1 [Compound 3-22]
- Ki (α2C adrenergic receptor; [4]): 69.3 ± 4.2 nM
- Ki (α2C adrenergic receptor; [5]): 69.3 ± 4.16 nM
- Ki (α2C adrenergic receptor; Ki (nM ± SEM) a2C-AR, Table 3-3, 3 independent experiments): 69.3 ± 4.16 nM
- Ki (α2C adrenergic receptor; [6]): 69.3 ± 4.16 nM
- Ki (α2C adrenergic receptor; [7]): 69.3 ± 4.16 nM
- Ki (α2A adrenergic receptor; [8]): 229 ± 24.9 nM
- Ki (α2A adrenergic receptor; [9]): 229 ± 24.9 nM
- Ki (α2A adrenergic receptor; [10]): 229 ± 24.9 nM
- Ki (α2A adrenergic receptor; [11]): 229 ± 24.9 nM
- Ki (α2A adrenergic receptor; [12]): 229 ± 24.9 nM
- Ki (hKOR; [13]): > 10000 nM
- Ki (hKOR; [14]): > 10000 nM
- Ki (hKOR; [15]): > 10000 nM
- Ki (hKOR; [16]): > 10000 nM
- Ki (hKOR; [17]): > 10000 nM
- Ki (hDOR; [18]): > 10000 nM
- Ki (hDOR; [19]): > 10000 nM
- Ki (hDOR; [20]): > 10000 nM
- Ki (hDOR; [21]): > 10000 nM
- Ki (hDOR; [22]): > 10000 nM
- Ki (hMOR; [23]): > 10000 nM
- Ki (hMOR; [24]): > 10000 nM
- Ki (hMOR; [25]): > 10000 nM
- Ki (hMOR; [26]): > 10000 nM
- Ki (hMOR; [27]): > 10000 nM

SMILES: CO/C=C(/C(=O)OC)C1CCN(CCc2c[nH]c3ccccc23)CC1 [Compound 3-23]
- Ki (α2C adrenergic receptor; [4]): 830 ± 268 nM
- Ki (α2C adrenergic receptor; [5]): 830 ± 268 nM
- Ki (α2C adrenergic receptor; Ki (nM ± SEM) a2C-AR, Table 3-4, 3 independent experiments): 830 ± 268 nM
- Ki (α2C adrenergic receptor; [6]): 830 ± 268 nM
- Ki (α2C adrenergic receptor; [7]): 135 ± 12.5 nM
- Ki (α2A adrenergic receptor; [8]): 741 ± 19.3 nM
- Ki (α2A adrenergic receptor; [9]): 741 ± 19.3 nM
- Ki (α2A adrenergic receptor; Ki (nM ± SEM) a2A-AR, Table 3-4, 3 independent experiments): 741 ± 19.3 nM
- Ki (α2A adrenergic receptor; [11]): 741 ± 19.3 nM
- Ki (α2A adrenergic receptor; [12]): 741 ± 19.3 nM
- Ki (hKOR; [13]): 3670 ± 1260 nM
- Ki (hKOR; [14]): 3670 ± 1260 nM
- Ki (hKOR; Table 3-4, 3 independent experiments, read-out: Ki (nM ± SEM) KOR): 3670 ± 1260 nM
- Ki (hKOR; [16]): 3670 ± 1260 nM
- Ki (hKOR; [17]): 3670 ± 1260 nM
- Ki (hDOR; [18]): > 10000 nM
- Ki (hDOR; [19]): > 10000 nM
- Ki (hDOR; Table 3-4, 3 independent experiments, read-out: Ki (nM ± SEM) DOR): > 10000 nM
- Ki (hDOR; [21]): > 10000 nM
- Ki (hDOR; [22]): > 10000 nM
- SR: Selectivity Ratio (KiMOR/Kiα2A) (hMOR; Table 3-1): 0.61
- Ki (hMOR; [23]): 451 ± 108 nM
- SR: Selectivity Ratio (KiMOR/Kiα2A) (hMOR; Table 3-2): 0.61
- Ki (hMOR; [24]): 451 ± 108 nM
- SR: Selectivity Ratio (KiMOR/Kiα2A) (hMOR; Table 3-4): 0.61
- Ki (hMOR; Table 3-4, read-out: Ki (nM ± SEM) MOR): 451 ± 108 nM
- SR: Selectivity Ratio (KiMOR/Kiα2A) (hMOR; Table 3-5): 0.61
- Ki (hMOR; [26]): 451 ± 108 nM
- SR: Selectivity Ratio (KiMOR/Kiα2A) (hMOR; Table 3-6): 0.61
- Ki (hMOR; [27]): 451 ± 108 nM

SMILES: COC(=O)CC1CCN(CCc2c[nH]c3c(OC)cccc23)CC1 [Compound 3-42]
- Ki (α2C adrenergic receptor; [5]): 830 ± 268 nM
- Ki (α2A adrenergic receptor; [9]): 1300 ± 129 nM
- Ki (α2A adrenergic receptor; [10]): 1300 ± 129 nM
- Ki (hKOR; [14]): > 10000 nM
- Ki (hKOR; [15]): > 10000 nM
- Ki (hDOR; [19]): > 10000 nM
- Ki (hDOR; [20]): > 10000 nM
- Ki (hMOR; [24]): > 10000 nM
- Ki (hMOR; [25]): > 10000 nM

SMILES: C#CCCN1CCC(O)(c2ccccc2OC)CC1 [SG-01-003, 1-(but-3-ynyl)-4-(2-methoxyphenyl)piperidin-4-ol]
- Ki (α2C adrenergic receptor; [1]): > 10000 nM
- Ki (α2A adrenergic receptor; [2]): 5750 ± 1170 nM
- Ki (hMOR; [3]): > 10000 nM
- selectivity between MOR and α 2A (hMOR; binding screen of intermediates): not selective towards both receptors

SMILES: COC(=O)C=C1CCN2CCC(O)(c3ccccc3OC)CC2C1 (stereo not drawn) [SG-01-005, Methyl 2-(8-hydroxy-8-(2-methoxyphenyl)dihydro-1H-quinolizin-2(6H,7H,8H,9H, 9aH)-ylidene)acetate]
- Ki (α2C adrenergic receptor; [1]): 129 ± 37.9 nM
- Ki (α2A adrenergic receptor; [2]): 264 ± 16 nM
- Ki (hMOR; [3]): > 10000 nM
